Measured values as given in US20250099554A1, “COMPOSITIONS AND METHODS OF FAS INHIBITION” (ONL Therapeutics, Inc., priority 2018, published 2025).
Entries after “also recorded” stand apart in the source; their conditions may differ. Where a SMILES comes first, the peptide text is derived from it.

How the values were obtained:
[1] = tested on: retinal ganglion cells (RGCs) and axons; test: RGC (Brn3a) and axon (PPD) density in microbead-induced mouse model of elevated IOP; format: in vivo, C57BL/6J mice
Experimental: (§1) C57BL/6J mice were used in this experiment in which 2 μL of sterile polystyrene microbeads (15 μm; 7.2×10^6 bead/mL) or saline were injected into the anterior chamber on Day 0 followed by 1 μL of 0.5 mg/mL or 2 mg/mL Compound 1 or vehicle by intravitreal (IVT) injection on Day 0 or 7 days after the microbead/saline injections. IOP was followed every 3 days for 4 weeks using a rebound tonometer (TonoLab). At 4 weeks post anterior chamber injection, retinal flatmounts were prepared and stained for Brn3a, an RGC-specific protein, to visualize RGCs. Sixteen non-overlapping images were taken, at 60× with 4-5 images within each quadrant and the images were used to calculate the RGC density. For axon analysis, optic nerves were stained with p-phenylenediamine (PPD) to visualize myelinated axons and 10 non-overlapping photomicrographs were taken at 100× magnification covering the entire area of the optic nerve cross-section, and these images were used to calculate the axon density. Quantitative PCR (qPCR) was also performed on retinal tissue isolated from the mice at 28 days post microbead/saline injections. To assess production of mature IL-1β (p17), protein lysates (20 μg per sample) were prepared from posterior eye cups (neural retina, choroid, and sclera) at 28 days post microbead/saline injections and analyzed by Western blot and densitometry. All data are presented as mean±SEM. One-way ANOVA and the Sidak multiple-comparison test were used for analysis of RGCs and axons. A p value<0.05 was considered significant.

mature IL-1β (p17) = test: Western blot and densitometry of mature IL-1β (p17) in posterior eye cups; format: in vivo, C57BL/6J mice
Experimental: as §1, with “For axon analysis, optic nerves were stained with p-phenylenediamine (PPD) to visualize myelinated axons and 10 non-overlapping photomicrographs were taken at 100× magnification covering the entire area of the optic nerve cross-section, and these images were used to calculate the axon density.” left out, “All data are presented as mean±SEM. One-way ANOVA and the Sidak multiple-comparison test were used for analysis of RGCs and axons. A p value<0.05 was considered significant.” left out
Quantitative PCR was performed on neural retina isolated at 28 days post microbead injection from mice treated with ONL1204 (or vehicle) on Day 0. […] For analysis of mature IL-1β (p17) production, protein lysates ([…] per sample) were prepared from posterior eye cups (neural retina, choroid, and sclera) and analyzed by Western blot.

[2] = tested on: neural retina inflammatory gene expression; test: qPCR of neural retina at 28 days post microbead injection (Example 2); format: in vivo, C57BL/6J mice; conditions: treated on Day 0
Experimental: as §1
Quantitative PCR was performed on neural retina isolated at 28 days post microbead injection from mice treated with ONL1204 (or vehicle) on Day 0. Data shown are mRNA expression fold change over saline controls+/−SEM. N=4/group, *P<0.05, **P<0.01. For analysis of mature IL-1β (p17) production, protein lysates ([…] per sample) were prepared from posterior eye cups (neural retina, choroid, and sclera) and analyzed by Western blot.

[3] = IOP by rebound tonometer in microbead-induced mouse model of elevated IOP; format: in vivo, C57BL/6J mice
Experimental: as §1, with “One-way ANOVA and the Sidak multiple-comparison test were used for analysis of RGCs and axons. A p value<0.05 was considered significant.” left out

[4] = tested on: neural retina gene expression following elevated IOP; test: qPCR of neural retina after microbead-induced elevation of IOP (Example 1); format: in vivo, mice
Excerpt: Quantitative PCR (qPCR) was used on neural retina samples isolated at 28 days post microbead or saline injection from mice treated with Compound 1 (or vehicle) on Day 0.
Data shown are mRNA expression fold change over saline+vehicle control+/−SEM. N=6/group, **P<0.01, ***P<0.001, ****P<0.0001.
A 96-well was expanded to a 384-well qPCR system to allow for an increase in the number of genes to be examined in one run.
For this qPCR analysis, saline+vehicle was used as the control. DDCt=experimental DCt−mean DCt of saline+vehicle, and Expression Fold Change=2^−DDCt.

[5] = tested on: retinal microglia/macrophages; test: Iba1 staining of retinal whole mounts, microglia/macrophage activation; format: in vivo, C57BL/6J mice; conditions: 28 days post microbead injection, treated at Day 0
Experimental: FIG. 12 depicts representative confocal images of retinal whole mounts at 28 days post microbead injection from mice treated with ONL1204 (or vehicle) at Day 0. Retinal whole mounts were stained with Iba1 (microglia/macrophage). Yellow arrows indicate homeostatic microglia with dendritic morphology; blue arrows indicate activated microglia and/or infiltrating macrophages with amoeboid morphology. Morphometric analysis was performed on Iba1+cells in the ganglion cell layer (60 cells per retina) and the longest process length measured from the edge of the cell body (in […]) was used to quantitate microglia activation.

[6] = 0.5 mg/ml, 1 μL IVT at Day 0, 4 weeks
[7] = 2.0 mg/mL IVT at Day 7 post-microbead injection, compared to saline plus vehicle controls
[8] = 2 mg/ml, 1 μL IVT at Day 0, 4 weeks
[9] = 28 days post microbead injection, treated Day 0
[10] = 28 days post microbead injection, treated Day 0, vs microbeads and vehicle

Compound: CC[C@H](C)[C@H](NC(=O)[C@H](Cc1ccc(O)cc1)NC(=O)[C@H](CC(N)=O)NC(=O)[C@@H](NC(=O)[C@H](C)NC(=O)CNC(=O)[C@H](CC(C)C)NC(=O)[C@H](Cc1ccc(O)cc1)NC(=O)[C@@H](NC(=O)[C@H](Cc1cnc[nH]1)NC(=O)[C@@H](N)Cc1cnc[nH]1)[C@@H](C)CC)C(C)C)C(=O)N[C@@H](Cc1ccc(O)cc1)C(N)=O [Compound 1, His-His-Ile-Tyr-Leu-Gly-Ala-Val-Asn-Tyr-Ile-Tyr-amide] (H-HHIYLGAVNYIY-NH2)
- axon density [1, 6]: statistically significant preservation
- retinal ganglion cell density [1, 6]: statistically significant preservation
- axon density [1, 7]: nearly total preservation
- retinal ganglion cell density [1, 7]: nearly total preservation
- axon density [1, 8]: statistically significant preservation
- retinal ganglion cell density [1, 8]: statistically significant preservation
- production of mature IL-1β (mature IL-1β (p17); 28 days post microbead injection): reduced
- reduction in production of mature IL-1β by densitometry, compared to vehicle (mature IL-1β (p17); Western blot, following microbead injection): two-fold
- CCL2/MCP-1 gene expression [2]: substantially inhibited
- CCL3/MIP-1α gene expression [2]: substantially inhibited
- TNF-α gene expression [2]: substantially inhibited
- effect on IOP ([3]; IVT injection on Day 7 post microbeads): did not affect
- effect on IOP ([3]; IVT injection on the same day as the microbeads): did not affect
- ASC gene expression ([4]; 28 day time point): Limited or no change
- Bax gene expression ([4]; 28 day time point): unaffected
- FADD gene expression ([4]; 28 day time point): unaffected
- FasL gene expression ([4]; 28 day time point): unaffected
- FasR gene expression ([4]; 28 day time point): unaffected
- NLRP2 gene expression ([4]; 28 day time point): Limited or no change
- caspase 3 gene expression ([4]; 28 day time point): unaffected
- complement C4 gene expression ([4]; 28 day time point): Limited or no change
- C1q gene expression [4, 9]: significantly reduced
- Caspase 8 gene expression [4, 9]: significantly reduced
- Complement C3 gene expression [4, 9]: significantly reduced
- NLRP3 gene expression [4, 9]: significantly reduced
- TLR4 gene expression [4, 9]: significantly reduced
- cFLIP gene expression (pro-survival) ([4]; 28 days post microbead injection, treated Day 0, decreased in microbead controls): restored to near-baseline
- GFAP gene expression [4, 10]: significantly reduced
- IL-1β gene expression [4, 10]: significantly reduced
- IL-6 gene expression [4, 10]: significantly reduced
- IL-18 gene expression [4, 10]: significantly reduced
- IP-10 gene expression [4, 10]: significantly reduced
- MCP-1 gene expression [4, 10]: significantly reduced
- MIP1α gene expression [4, 10]: significantly reduced
- MIP2 gene expression [4, 10]: significantly reduced
- MIP-1β gene expression [4, 10]: significantly reduced
- TNFα gene expression [4, 10]: significantly reduced
- microglial/macrophage activation [5]: inhibits; also recorded: reduced number of activated microglia/macrophages
